The nature of this assay: Antagonist activity at P2Y12 receptor in human platelet rich plasma assessed as inhibition of ADP-induced platelet aggregation by light transmission aggregometry.
For the compound `CCCCCOC(=O)N1CCN(C(=O)[C@H](CCC(=O)O)NC(=O)c2cc(N3CCN(C(N)=O)CC3)nc(-c3ccccc3)n2)CC1` [(S)-4-(6-(4-carbamoylpiperazin-1-yl)-2-phenylpyrimidine-4-carboxamido)-5-oxo-5-(4-(pentyloxycarbonyl)piperazin-1-yl)pentanoic acid], the IC50 came out at 0.94 µM.

On to `CCCCCOC(=O)N1CCN(C(=O)[C@H](CCC(=O)O)NC(=O)c2cc(N3CCC(CC(=O)N4CCC4)CC3)nc(-c3ccccc3)n2)CC1` [(S)-4-(6-(4-(2-(azetidin-1-yl)-2-oxoethyl)piperidin-1-yl)-2-phenylpyrimidine-4-carboxamido)-5-oxo-5-(4-(pentyloxycarbonyl)piperazin-1-yl)pentanoic acid], for which the IC50 turned out to be 1 µM.

`CCCCCOC(=O)N1CCN(C(=O)[C@H](CCC(=O)O)NC(=O)c2cc(NCCCN(C)C)nc(-c3ccccc3)n2)CC1` [(S)-4-(6-(3-(dimethylamino)propylamino)-2-phenylpyrimidine-4-carboxamido)-5-oxo-5-(4-(pentyloxycarbonyl)piperazin-1-yl)pentanoic acid]: the IC50 stood at 2.6 µM.

As for `CCCCCOC(=O)N1CCN(C(=O)[C@H](CCC(=O)O)NC(=O)c2cc(N3CCC(COC)CC3)nc(-c3ccccc3)n2)CC1` [(S)-4-(6-(4-(methoxymethyl)piperidin-1-yl)-2-phenylpyrimidine-4-carboxamido)-5-oxo-5-(4-(pentyloxycarbonyl)piperazin-1-yl)pentanoic acid], the IC50 amounted to 2 µM.

Consider `CCCCOC(=O)N1CCN(C(=O)[C@H](CCC(=O)O)NC(=O)c2cc(OCC3CCN(C)CC3)nc(-c3ccccc3)n2)CC1` [(S)-5-(4-(butoxycarbonyl)piperazin-1-yl)-4-(6-((1-methylpiperidin-4-yl)methoxy)-2-phenylpyrimidine-4-carboxamido)-5-oxopentanoic acid], for which the IC50 is 3 µM.

In the case of `CCCCCOC(=O)N1CCN(C(=O)[C@H](CCC(=O)O)NC(=O)c2nc(-c3ccccc3)cc(N3CCC(CCN)CC3)n2)CC1` [(S)-4-(4-(4-(2-aminoethyl)piperidin-1-yl)-6-phenylpyrimidine-2-carboxamido)-5-oxo-5-(4-(pentyloxycarbonyl)piperazin-1-yl)pentanoic acid], the IC50 was determined as 1.4 µM.

On to `CCCCCOC(=O)N1CCN(C(=O)[C@H](CCC(=O)O)NC(=O)c2nc(-c3ccccc3)cc(N3CCN(C(C)=O)CC3)n2)CC1` [(S)-4-(4-(4-acetylpiperazin-1-yl)-6-phenylpyrimidine-2-carboxamido)-5-oxo-5-(4-(pentyloxycarbonyl)piperazin-1-yl)pentanoic acid], for which the IC50 is 6.5 µM.

As to `CCCCCOC(=O)N1CCN(C(=O)[C@H](CCC(=O)O)NC(=O)c2cc(N3CCN(CC(=O)N4CCCC4)CC3)nc(-c3ccccc3)n2)CC1` [(S)-5-oxo-4-(6-(4-(2-oxo-2-(pyrrolidin-1-yl)ethyl)piperazin-1-yl)-2-phenylpyrimidine-4-carboxamido)-5-(4-(pentyloxycarbonyl)piperazin-1-yl)pentanoic acid], the IC50 came out at 1.1 µM.

`CCCCCOC(=O)N1CCN(C(=O)[C@H](CCC(=O)O)NC(=O)c2cc(N3CCN(C(=O)N(C)C)CC3)nc(-c3ccccc3)n2)CC1` [(S)-4-(6-(4-(dimethylcarbamoyl)piperazin-1-yl)-2-phenylpyrimidine-4-carboxamido)-5-oxo-5-(4-(pentyloxycarbonyl)piperazin-1-yl)pentanoic acid]: the IC50 stood at 1.6 µM.

`CCCCCOC(=O)N1CCN(C(=O)[C@H](CCC(=O)O)NC(=O)c2cc(N3CCC(CN4CCCC4)CC3)nc(-c3ccccc3)n2)CC1` [(S)-5-oxo-5-(4-(pentyloxycarbonyl)piperazin-1-yl)-4-(2-phenyl-6-(4-(pyrrolidin-1-ylmethyl)piperidin-1-yl)pyrimidine-4-carboxamido)pentanoic acid]: the IC50 stood at 0.56 µM.

Turning to `CCCCCOC(=O)N1CCN(C(=O)[C@H](CCC(=O)O)NC(=O)c2nc(-c3ccccc3)cc(N3CCOCC3)n2)CC1` [(S)-4-(4-morpholino-6-phenylpyrimidine-2-carboxamido)-5-oxo-5-(4-(pentyloxycarbonyl)piperazin-1-yl)pentanoic acid], the IC50 was more than 10 µM.

`CCCCCOC(=O)N1CCN(C(=O)[C@H](CCC(=O)O)NC(=O)c2cc(N3CCC(OCCO)CC3)nc(-c3ccccc3)n2)CC1` [(S)-4-(6-(4-(2-hydroxyethoxy)piperidin-1-yl)-2-phenylpyrimidine-4-carboxamido)-5-oxo-5-(4-(pentyloxycarbonyl)piperazin-1-yl)pentanoic acid]: the IC50 came out at 1.3 µM.

Consider `CCCCCOC(=O)N1CCN(C(=O)[C@H](CCC(=O)O)NC(=O)c2nc(-c3ccccc3)cc(N3CCNCC3)n2)CC1` [(S)-5-oxo-5-(4-(pentyloxycarbonyl)piperazin-1-yl)-4-(4-phenyl-6-(piperazin-1-yl)pyrimidine-2-carboxamido)pentanoic acid], for which the IC50 came to 5.2 µM.

With `CCCCCOC(=O)N1CCN(C(=O)[C@H](CCC(=O)O)NC(=O)c2cc(NC3CCN(C(C)C)CC3)nc(-c3ccccc3)n2)CC1` [(S)-4-(6-(1-isopropylpiperidin-4-ylamino)-2-phenylpyrimidine-4-carboxamido)-5-oxo-5-(4-(pentyloxycarbonyl)piperazin-1-yl)pentanoic acid], the IC50 worked out at 3.7 µM.

As to `CCCCCOC(=O)N1CCN(C(=O)[C@H](CCC(=O)O)NC(=O)c2nc(OCCOC)cc(-c3ccccc3)n2)CC1` [(S)-4-(4-(2-methoxyethoxy)-6-phenylpyrimidine-2-carboxamido)-5-oxo-5-(4-(pentyloxycarbonyl)piperazin-1-yl)pentanoic acid], the 50% inhibitory concentration (IC50) is more than 10 µM.

For `CCCCOC(=O)N1CCN(C(=O)[C@H](CCC(=O)O)NC(=O)c2cc(OC(CC)C(=O)N(CC)CC)nc(-c3ccccc3)n2)CC1` (stereo partly drawn) [(4S)-5-(4-(butoxycarbonyl)piperazin-1-yl)-4-(6-(1-(diethylamino)-1-oxobutan-2-yloxy)-2-phenylpyrimidine-4-carboxamido)-5-oxopentanoic acid], the IC50 was 49 µM.

In the case of `CCCCCOC(=O)N1CCN(C(=O)[C@H](CCC(=O)O)NC(=O)c2nc(OCCCN3CCOCC3)cc(-c3ccccc3)n2)CC1` [(S)-4-(4-(3-morpholinopropoxy)-6-phenylpyrimidine-2-carboxamido)-5-oxo-5-(4-(pentyloxycarbonyl)piperazin-1-yl)pentanoic acid], the IC50 came out at 7 µM.

With `CCCCCOC(=O)N1CCN(C(=O)[C@H](CCC(=O)O)NC(=O)c2cc(N3CCC(CC(=O)NCC)CC3)nc(-c3ccccc3)n2)CC1` [(S)-4-(6-(4-(2-(ethylamino)-2-oxoethyl)piperidin-1-yl)-2-phenylpyrimidine-4-carboxamido)-5-oxo-5-(4-(pentyloxycarbonyl)piperazin-1-yl)pentanoic acid], the IC50 was 1.6 µM.

With `CCCCCOC(=O)N1CCN(C(=O)[C@H](CCC(=O)O)NC(=O)c2nc(-c3ccccc3)cc(N3CCC(OCCO)CC3)n2)CC1` [(S)-4-(4-(4-(2-hydroxyethoxy)piperidin-1-yl)-6-phenylpyrimidine-2-carboxamido)-5-oxo-5-(4-(pentyloxycarbonyl)piperazin-1-yl)pentanoic acid], the IC50 was more than 10 µM.

Regarding `CCCCCOC(=O)N1CCN(C(=O)[C@H](CCC(=O)O)NC(=O)c2cc(N3CCC(OC)CC3)nc(-c3ccccc3)n2)CC1` [(S)-4-(6-(4-methoxypiperidin-1-yl)-2-phenylpyrimidine-4-carboxamido)-5-oxo-5-(4-(pentyloxycarbonyl)piperazin-1-yl)pentanoic acid], the IC50 is 2.7 µM.

For `CCCCCOC(=O)N1CCN(C(=O)[C@H](CCC(=O)O)NC(=O)c2cc(N3CCC(C(=O)N4CCCC4)CC3)nc(-c3ccccc3)n2)CC1` [(S)-5-oxo-5-(4-(pentyloxycarbonyl)piperazin-1-yl)-4-(2-phenyl-6-(4-(pyrrolidine-1-carbonyl)piperidin-1-yl)pyrimidine-4-carboxamido)pentanoic acid], the IC50 is 0.27 µM.

In the case of `CCCCCOC(=O)N1CCN(C(=O)[C@H](CCC(=O)O)NC(=O)c2cc(N3CCC(CCN(C)C)CC3)nc(-c3ccccc3)n2)CC1` [(S)-4-(6-(4-(2-(dimethylamino)ethyl)piperidin-1-yl)-2-phenylpyrimidine-4-carboxamido)-5-oxo-5-(4-(pentyloxycarbonyl)piperazin-1-yl)pentanoic acid], the IC50 came out at 0.4 µM.

Turning to `CCCCCOC(=O)N1CCN(C(=O)[C@H](CCC(=O)O)NC(=O)c2cc(N3CCC(N)CC3)nc(-c3ccccc3)n2)CC1` [(S)-4-(6-(4-aminopiperidin-1-yl)-2-phenylpyrimidine-4-carboxamido)-5-oxo-5-(4-(pentyloxycarbonyl)piperazin-1-yl)pentanoic acid], the IC50 is 0.72 µM.

For `CCCCCOC(=O)N1CCN(C(=O)[C@H](CCC(=O)O)NC(=O)c2cc(N3CCC(CC(=O)N(CC)CC)CC3)nc(-c3ccccc3)n2)CC1` [(S)-4-(6-(4-(2-(diethylamino)-2-oxoethyl)piperidin-1-yl)-2-phenylpyrimidine-4-carboxamido)-5-oxo-5-(4-(pentyloxycarbonyl)piperazin-1-yl)pentanoic acid], the IC50 came to 2.6 µM.

For `CCCCCOC(=O)N1CCN(C(=O)[C@H](CCC(=O)O)NC(=O)c2cc(SC3CCCC3)nc(-c3ccccc3)n2)CC1` [(S)-4-(6-(cyclopentylthio)-2-phenylpyrimidine-4-carboxamido)-5-oxo-5-(4-(pentyloxycarbonyl)piperazin-1-yl)pentanoic acid], the IC50 was more than 10 µM.

Take `CCCCCOC(=O)N1CCN(C(=O)[C@H](CCC(=O)O)NC(=O)c2cc(N3CCC(CN(CC)CC)CC3)nc(-c3ccccc3)n2)CC1` [(4S)-4-[(6-{4-[(diethylamino)methyl]piperidin-1-yl}-2-phenylpyrimidin-4-yl)formamido]-5-oxo-5-{4-[(pentyloxy)carbonyl]piperazin-1-yl}pentanoic acid]: the 50% inhibitory concentration (IC50) is 0.86 µM.

For `CCCCCOC(=O)N1CCN(C(=O)[C@H](CCC(=O)O)NC(=O)c2cc(N3CCC(CN4CCCC4=O)CC3)nc(-c3ccccc3)n2)CC1` [(S)-5-oxo-4-(6-(4-((2-oxopyrrolidin-1-yl)methyl)piperidin-1-yl)-2-phenylpyrimidine-4-carboxamido)-5-(4-(pentyloxycarbonyl)piperazin-1-yl)pentanoic acid], the IC50 is 1.6 µM.

Usually IC50 stands for the concentration that inhibits the measured activity by half.
